Key:
[1] = molecular target: GDP-bound NRAS wild-type protein (Homo sapiens, UniProt P01111); assay: Binding to NRAS by surface plasmon resonance (SPR), Single Cycle Kinetics; settings: SPR, GDP-bound NRAS wild-type protein vs GDP-bound KRAS wild-type protein
[2] = molecular target: GDP-bound KRAS wild-type protein (Homo sapiens, UniProt P01116); assay: Binding to KRAS by surface plasmon resonance (SPR), Single Cycle Kinetics; settings: SPR, Single Cycle Kinetics, GDP-bound KRAS wild-type protein; read-out: KRAS KD
[3] = molecular target: GDP-bound HRAS wild-type protein (Homo sapiens, UniProt P01112); assay: Binding to HRAS by surface plasmon resonance (SPR), Single Cycle Kinetics; settings: SPR, GDP-bound HRAS wild-type protein vs GDP-bound KRAS wild-type protein
Chain of GDP-bound HRAS wild-type protein (P01112 whole entry): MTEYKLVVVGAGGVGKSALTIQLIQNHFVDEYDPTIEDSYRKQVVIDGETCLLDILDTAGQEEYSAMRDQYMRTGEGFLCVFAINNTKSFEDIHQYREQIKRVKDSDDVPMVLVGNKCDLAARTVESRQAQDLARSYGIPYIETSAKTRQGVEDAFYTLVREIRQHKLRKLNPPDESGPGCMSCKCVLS

Chain of GDP-bound NRAS wild-type protein (P01111 whole entry): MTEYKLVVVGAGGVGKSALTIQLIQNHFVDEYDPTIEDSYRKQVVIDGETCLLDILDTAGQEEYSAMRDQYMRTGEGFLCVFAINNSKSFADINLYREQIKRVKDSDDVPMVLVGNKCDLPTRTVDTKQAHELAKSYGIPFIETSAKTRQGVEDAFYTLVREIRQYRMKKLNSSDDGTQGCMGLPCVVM
Chain of GDP-bound KRAS wild-type protein (P01116 whole entry): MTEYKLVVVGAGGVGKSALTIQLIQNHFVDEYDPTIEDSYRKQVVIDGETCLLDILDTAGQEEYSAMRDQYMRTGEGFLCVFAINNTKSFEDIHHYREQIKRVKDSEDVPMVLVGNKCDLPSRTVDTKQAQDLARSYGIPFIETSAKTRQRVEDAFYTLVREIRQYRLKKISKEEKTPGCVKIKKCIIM

SMILES | Kd [2] [pM] | NRAS/KRAS (ratio of KD value for NRAS to KD value for KRAS) [1] | HRAS/KRAS (ratio of KD value for HRAS to KD value for KRAS) [3]
CCO[C@@H]1C[C@H]2C(=O)NC3(CCC3)C(=O)N(C)[C@@H](C3CCCC3)C(=O)N3CCC[C@@H]3CC(=O)N(C)[C@@H](CC)C(=O)N[C@@H]([C@@H](C)CC)C(=O)N(C)CC(=O)N(C)[C@H]3C/C=C\CCN(C3=O)[C@@H](Cc3ccc(C(F)(F)F)cc3)C(=O)N(C)CC(=O)N[C@@H](CCc3cc(F)c(C(F)(F)F)c(F)c3)C(=O)N2C1 [PP1097, (2S,8S,12R,14S,20S,26R,30S,33S,39S,41Z)-20-cyclopentyl-8-[2-[3,5-difluoro-4-(trifluoromethyl)phenyl]ethyl]-12-ethoxy-30-ethyl-4,19,29,35,38-pentamethyl-33-[(1 S)-1-methylpropyl]-2-[[4-(trifluoromethyl)phenyl]methyl]spiro[1,4,7,10,16,19,22,29,32,35,38-undecazatetracyclo[37.5.1.0^10,14.022,26]pentatetracont-41-ene-17,1′-cyclobutane]-3,6,9,15,18,21,28,31,34,37,45-undecone] | 120 | B (a compound having 3 or more and less than 10 is denoted as B) | B (a compound having 3 or more and less than 10 is denoted as B)
CCO[C@@H]1C[C@H]2C(=O)NC3(CCC3)C(=O)N(C)[C@@H](C3CCCC3)C(=O)N[C@H](C)CC(=O)N(C)[C@@H](CC)C(=O)N[C@@H]([C@@H](C)CC)C(=O)N(C)CC(=O)N(C)[C@H]3C/C=C\CCN(C3=O)[C@@H](Cc3ccc(C(F)(F)F)cc3)C(=O)N(C)CC(=O)N[C@@H](CCc3cc(F)c(C(F)(F)F)c(F)c3)C(=O)N2C1 [PP1098] | 680 | B (a compound having 3 or more and less than 10 is denoted as B) | B (a compound having 3 or more and less than 10 is denoted as B)
CC[C@H](C)[C@@H]1NC(=O)[C@H](CC)N(C)C(=O)C[C@@H](C)N(C)C(=O)[C@H](C2CCCC2)N(C)C(=O)C2(CCCC2)NC(=O)[C@@H]2CCCN2C(=O)[C@H](CCc2cc(F)c(C(F)(F)F)c(F)c2)NC(=O)CN(C)C(=O)[C@H](Cc2ccc(C(F)(F)F)cc2)N2CC/C=C\C[C@@H](C2=O)N(C)C(=O)CN(C)C1=O [PP1101] | 460 | B (a compound having 3 or more and less than 10 is denoted as B) | B (a compound having 3 or more and less than 10 is denoted as B)
CC[C@H](C)[C@@H]1NC(=O)[C@H](CC(C)C)N(C)C(=O)C[C@@H](C)N(C)C(=O)[C@H](C2CCCC2)N(C)C(=O)C2(CCCC2)NC(=O)[C@@H]2CCCN2C(=O)[C@H](CCc2cc(F)c(C(F)(F)F)c(F)c2)NC(=O)CN(C)C(=O)[C@H](Cc2ccc(C(F)(F)F)cc2)N2CC/C=C\C[C@@H](C2=O)N(C)C(=O)CN(C)C1=O [PP1102] | 950 | B (a compound having 3 or more and less than 10 is denoted as B) | A (a compound having 10 or more and less than 20 is denoted as A)
CC[C@H](C)[C@@H]1NC(=O)[C@H](CC)N(C)C(=O)C[C@@H](C(=O)N(C)C)N(CC)C(=O)[C@H](C2CCCC2)N(C)C(=O)C2(CCC2)NC(=O)[C@@H]2CCCN2C(=O)[C@H](CCc2cc(F)c(C(F)(F)F)c(F)c2)NC(=O)CN(C)C(=O)[C@H](Cc2ccc(C(F)(F)F)cc2)N2CC/C=C\C[C@@H](C2=O)N(C)C(=O)CN(C)C1=O [PP1106] | 810 | A (a compound having 10 or more and less than 20 is denoted as A) | A (a compound having 10 or more and less than 20 is denoted as A)
CCO[C@@H]1C[C@H]2C(=O)NC3(CCC3)C(=O)N(C)[C@@H](C3CCCC3)C(=O)N(C)[C@H](C(=O)N(C)C)CC(=O)N(C)[C@@H](C(C)C)C(=O)N[C@@H]([C@@H](C)CC)C(=O)N(C)CC(=O)N(C)[C@H]3C/C=C\CCN(C3=O)[C@@H](Cc3ccc(C(F)(F)F)cc3)C(=O)N(C)CC(=O)N[C@@H](CCc3cc(F)c(C(F)(F)F)c(F)c3)C(=O)N2C1 [PP1109, (2S,8S,12R,14S,20S,23S,27S,30S,36S,38Z)-20-cyclopentyl-8-[2-[3,5-difluoro-4-(trifluoromethyl)phenyl]ethyl]-12-ethoxy-27-isopropyl-N,N,4,19,22,26,32,35-octamethyl-30-[(1S)-1-methylpropyl]-3,6,9,15,18,21,25,28,31,34,42-undecaoxo-2-[[4-(trifluoromethyl)phenyl]methyl]spiro[1,4,7,10,16,19,22,26,29,32,35-undecazatricyclo[34.5.1.0^10,14]dotetracont-38-ene-17,1′-cyclobutane]-23-carboxamide] | 120 | A (a compound having 10 or more and less than 20 is denoted as A) | B (a compound having 3 or more and less than 10 is denoted as B)

These reach a lower Kd [2]. Values come first.

Kd [2] [pM] | SMILES | NRAS/KRAS (ratio of KD value for NRAS to KD value for KRAS) [1] | HRAS/KRAS (ratio of KD value for HRAS to KD value for KRAS) [3]
36 | CC[C@H](C)[C@@H]1NC(=O)[C@H](C)N(C)C(=O)C[C@@H](C(=O)N(C)C)N(C)C(=O)[C@H](C2CCCC2)N(C)C(=O)C2(CCC2)NC(=O)[C@@H]2CC(F)(F)CN2C(=O)[C@H](CCc2cc(F)c(C(F)(F)F)c(F)c2)NC(=O)CN(C)C(=O)[C@H](Cc2ccc(C(F)(F)F)cc2)N2CC/C=C\C[C@@H](C2=O)N(C)C(=O)CN(C)C1=O [PP1103, (2S,8S,14S,20S,23S,27S,30S,36S,38Z)-20-cyclopentyl-8-[2-[3,5-difluoro-4-(trifluoromethyl)phenyl]ethyl]-12,12-difluoro-N,N,4,19,22,26,27,32,35-nonamethyl-30-[(1S)-1-methylpropyl]-3,6,9,15,18,21,25,28,31,34,42-undecaoxo-2-[[4-(trifluoromethyl)phenyl]methyl]spiro[1,4,7,10,16,19,22,26,29,32,35-undecazatricyclo[34.5.1.0^10,14]dotetracont-38-ene-17,1′-cyclobutane]-23-carboxamide] | A (a compound having 10 or more and less than 20 is denoted as A) | B (a compound having 3 or more and less than 10 is denoted as B)
59 | CCO[C@@H]1C[C@H]2C(=O)NC3(CCCC3)C(=O)N(C)[C@@H](C3CCCC3)C(=O)N(C)[C@H](C(=O)N(C)C)CC(=O)N(C)[C@@H](C)C(=O)N[C@@H]([C@@H](C)CC)C(=O)N(C)CC(=O)N(C)[C@H]3C/C=C\CCN(C3=O)[C@@H](Cc3ccc(C(F)(F)F)cc3)C(=O)N(C)CC(=O)N[C@@H](CCc3cc(F)c(C(F)(F)F)c(F)c3)C(=O)N2C1 [PP1104, (2S,8S,12R,14S,20S,23S,27S,30S,36S,38Z)-20-cyclopentyl-8-[2-[3,5-difluoro-4-(trifluoromethyl)phenyl]ethyl]-12-ethoxy-N,N,4,19,22,26,27,32,35-nonamethyl-30-[(1S)-1-methylpropyl]-3,6,9,15,18,21,25,28,31,34,42-undecaoxo-2-[[4-(trifluoromethyl)phenyl]methyl]spiro[1,4,7,10,16,19,22,26,29,32,35-undecazatricyclo[34.5.1.0^10,14]dotetracont-38-ene-17,1′-cyclopentane]-23-carboxamide] | A (a compound having 10 or more and less than 20 is denoted as A) | A (a compound having 10 or more and less than 20 is denoted as A)
38 | CCO[C@@H]1C[C@H]2C(=O)NC3(CCC3)C(=O)N(C)[C@@H](C3CCCC3)C(=O)N(C)[C@H](C(=O)N(C)C)CC(=O)N(C)[C@@H](CC(C)C)C(=O)N[C@@H]([C@@H](C)CC)C(=O)N(C)CC(=O)N(C)[C@H]3C/C=C\CCN(C3=O)[C@@H](Cc3ccc(C(F)(F)F)cc3)C(=O)N(C)CC(=O)N[C@@H](CCc3cc(F)c(C(F)(F)F)c(F)c3)C(=O)N2C1 [PP1107, (2S,8S,12R,14S,20S,23S,27S,30S,36S,38Z)-20-cyclopentyl-8-[2-[3,5-difluoro-4-(trifluoromethyl)phenyl]ethyl]-12-ethoxy-27-isobutyl-N,N,4,19,22,26,32,35-octamethyl-30-[(1S)-1-methylpropyl]-3,6,9,15,18,21,25,28,31,34,42-undecaoxo-2-[[4-(trifluoromethyl)phenyl]methyl]spiro[1,4,7,10,16,19,22,26,29,32,35-undecazatricyclo[34.5.1.0^10,14]dotetracont-38-ene-17,1′-cyclobutane]-23-carboxamide] | A (a compound having 10 or more and less than 20 is denoted as A) | A (a compound having 10 or more and less than 20 is denoted as A)
33 | CCO[C@@H]1C[C@H]2C(=O)NC3(CCC3)C(=O)N(C)[C@@H](C3CCCC3)C(=O)N(C)[C@H](C(=O)N(C)C)CC(=O)N(C)[C@@H](C)C(=O)N[C@@H]([C@@H](C)CC)C(=O)N(C)CC(=O)N(C)[C@H]3C/C=C\CCN(C3=O)[C@@H](Cc3ccc(C(F)(F)F)cc3)C(=O)N(C)CC(=O)N[C@@H](CCc3cc(F)c(C(F)(F)F)c(F)c3)C(=O)N2C1 [PP1108, (2S,8S,12R,14S,20S,23S,27S,30S,36S,38Z)-20-cyclopentyl-8-[2-[3,5-difluoro-4-(trifluoromethyl)phenyl]ethyl]-12-ethoxy-N,N,4,19,22,26,27,32,35-nonamethyl-30-[(1S)-1-methylpropyl]-3,6,9,15,18,21,25,28,31,34,42-undecaoxo-2-[[4-(trifluoromethyl)phenyl]methyl]spiro[1,4,7,10,16,19,22,26,29,32,35-undecazatricyclo[34.5.1.0^10,14]dotetracont-38-ene-17,1′-cyclobutane]-23-carboxamide] | A (a compound having 10 or more and less than 20 is denoted as A) | A (a compound having 10 or more and less than 20 is denoted as A)
